Data set [1] can be described thus: Intrinsic clearance in human liver microsomes. It counts as ADME, Microsome. Background: Liver microsomes are a subcellular fraction often used to study metabolism.
Data set [2] can be described thus: Oral bioavailability in Sprague-Dawley rat at 2 umol/kg. Type of data set: ADME, organism-based. The settings on record: in vivo.
The subject of the next data set is Rattus norvegicus. In words: Clearance in Sprague-Dawley rat plasma at 2 umol/kg, iv. The settings on record: in vivo. It counts as ADME, organism-based.
Data set [3] in a line: Volume of distribution at steady state in Sprague-Dawley rat at 2 umol/kg, iv. It counts as ADME, organism-based. The settings on record: in vivo, read-out: Vdss.
A short description of data set [4]: Half life in Sprague-Dawley rat at 2 umol/kg, iv. It counts as ADME, organism-based. The settings on record: in vivo.
A short description of data set [5]: Intrinsic clearance in rat liver microsomes. Type of data set: ADME, Microsome.
Data set [6] is described as follows: Ratio of drug level brain to plasma in Sprague-Dawley rat at 2 umol/kg, iv. Type of data set: ADME. Particulars: brain and plasma, read-out: BPR.
Data set [7] can be described thus: Apparent permeability from apical to basolateral side of MDCK cells expressing MDR1. Type of data set: ADME, cell-based, Canis lupus familiaris. The settings on record: dog.
Data set [8] can be described thus: Ratio of drug level brain to plasma in Sprague-Dawley rat at 5 umol/kg, iv. It counts as ADME. The settings on record: brain and plasma, read-out: BPR.

As usually defined, the microsomal CLint is the capacity of the preparation to metabolise the compound, expressed as a volume cleared per time. The low end stands for slow turnover, the high end for rapid turnover. One may read the bioavailability as dose-corrected exposure relative to a reference, in per cent. A lower bioavailability goes with poor availability. The half-life is how long it takes for the measured level to halve. Read a high half-life as slow loss. Broadly, the Papp A→B is how fast a substance crosses the layer from the apical side.

In the case of `NC(=O)c1cccc(C[C@H]2C[C@H]3CC[C@@H](C2)N3Cc2ccccc2)c1`, the intrinsic clearance (microsomal CLint) was < 4 µL/min/mg in data set [1] and 65 µL/min/mg in data set [5]. The molecule further returned a bioavailability in data set [2] of 5%. For the same molecule, the CL in the data set on Rattus norvegicus came out at 124 µL/min/mg. Moreover, in [3], the Vd is 6.6 L/kg. This molecule also had a half-life in [4] of 78 min. Moreover, the Kp in data set [6] stood at 1.9. In addition, the Papp A→B in [7] came to 14 ×10⁻⁶ cm/s.
In the case of `CN(C)C(=O)N[C@H]1CC[C@@H](CCN2[C@@H]3CC[C@H]2C[C@@H](Oc2cccc(C(N)=O)c2)C3)CC1`, the microsomal CLint in data set [1] is < 4 µL/min/mg; in [5], 30 µL/min/mg. In data set [8], the Kp came to 0.22. Also, in data set [7], the Papp A→B amounted to 1.9 ×10⁻⁶ cm/s.

The values above are taken from ChEMBL document CHEMBL1221377, “SAR development of a series of 8-azabicyclo[3.2.1]octan-3-yloxy-benzamides as kappa opioid receptor antagonists. Part 2” (Bioorg Med Chem Lett, 2010).
